Test results reported in paper PMC5207538, “Substrates and Inhibitors of SAMHD1” (PLoS ONE, 2017).

Target: T1, SAMHD1 (Homo sapiens, UniProt Q9Y3Z3)
T1 construct: recombinant SAMHD1 with N-terminal GST tag
Test: TLC-based [γ-32P]-dTTP triphosphohydrolase kinetics; HPLC dGTP hydrolysis assay
Type: biochemical

T1 sequence (Q9Y3Z3 whole entry): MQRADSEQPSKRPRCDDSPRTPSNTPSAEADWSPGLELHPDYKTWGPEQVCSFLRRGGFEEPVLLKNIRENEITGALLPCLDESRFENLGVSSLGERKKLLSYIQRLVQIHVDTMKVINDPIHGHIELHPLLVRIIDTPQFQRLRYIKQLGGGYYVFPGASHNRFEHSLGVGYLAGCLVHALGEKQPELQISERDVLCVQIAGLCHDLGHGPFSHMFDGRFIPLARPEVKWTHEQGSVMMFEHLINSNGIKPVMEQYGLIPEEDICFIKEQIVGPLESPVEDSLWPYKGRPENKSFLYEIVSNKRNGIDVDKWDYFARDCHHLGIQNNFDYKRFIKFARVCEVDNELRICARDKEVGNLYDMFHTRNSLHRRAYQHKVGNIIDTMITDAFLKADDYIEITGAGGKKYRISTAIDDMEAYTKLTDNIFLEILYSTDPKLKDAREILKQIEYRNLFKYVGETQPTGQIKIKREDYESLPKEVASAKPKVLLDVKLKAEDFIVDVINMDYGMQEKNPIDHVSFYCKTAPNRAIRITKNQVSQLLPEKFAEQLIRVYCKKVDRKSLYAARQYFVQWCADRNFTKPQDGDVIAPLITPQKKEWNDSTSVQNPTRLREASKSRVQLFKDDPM

Ki: 256 ± 70 µM
SMILES: C[C@H]1[C@H](O)[C@@H](COP(=O)(O)OP(=O)(O)OP(=O)(O)O)O[C@H]1n1ccc(=O)[nH]c1=O [SMDU-TP]
